Tests used:
human B cells = experiment: Human B cell anti-IgM proliferation assay; type: cell-based; conditions: Homo sapiens, B-cell; thymidine incorporation, day four
[1] = tested on: IL-12p40 production from mouse splenic DC; experiment: anti-CD40-induced IL-12p40 production from splenic DCs; type: cell-based; conditions: WT mouse splenic DC (not in NIK-deficient); 3 µM or 1 µM, 18 hrs
Procedure: Supplementary Figure 2. NIK inhibition of IL-12p40 production from splenic DCs Splenic DCs (B220- CD11c +) were sorted from Nik WT/WT,CD11c-CRE + and Nik fl/fl, CD11c- […]
µM) for 18 hrs. IL-12p40 production was measured by ELISA. Data represented as mean ± standard deviation of 3 biological replicates. One-way ANOVA with Tukey’s test for multiple comparisons. *p<0.05, **p<0.01, ***p<0.001; ****p<0.0001; ns, not significant.

[2] = tested on: p52 processing in murine B cells; experiment: p52 processing western blot in B cells; type: cell-based; conditions: mouse B cells
Procedure: p52/p100 and β-actin were monitored by western blot as described previously. Briefly, p52 processing was detected after 6 or 18 h of stimulation. Mouse and human RPTEC cells were stimulated with recombinant mouse or human TWEAK (100 ng/mL, R&D Systems). Primary B cells were isolated by negative selection (Miltenyi) from either mouse spleen or human whole blood. Human primary B cells were stimulated with either rhCD40L (10 μg/mL) or rhBAFF (400 ng/mL) (R&D Systems). Mouse primary B cells were stimulated with either anti-CD40 (10 μg/mL, BD Biosciences) or rmBAFF (400 ng/mL). After 6 or 18 h, whole cell extracts were generated using RIPA buffer (with protease and phosphatase inhibition), and approximately 10 μg of total protein was monitored for p52/p100 and β-Actin by western blot. HeLa cells (ATCC) were stimulated for 8 h with anti-LTβR agonist antibody and cytoplasmic and nuclear extracts were generated using kits purchase from Thermo Scientific and approximately […] of each extract was monitored for p52/p100, phospho-RelA, RelA, or β-Actin, Histone H3, or Lamin B1 controls. Uncropped western blots, as required by journal policies, are provided in Supplementary Fig. 13 and 14.

NZB/W F1 mice = experiment: rAdV-IFNα-accelerated NZB/W F1 lupus model, survival study; type: in vivo, mouse
Procedure: Age-matched (NZB x NZW) F1 mice were purchased from Jackson Laboratory. Fourteen to fifteen weeks old female NZB/W F1 mice were injected i.v. with 1.2 × 10^8 rAD5-CMV-IFNα (rAdV-IFNα) particles (Genentech) to accelerate disease[34],[69]. […] In efficacy studies, proteinuria and survival were tracked through day 84. A 4-week PD study was performed to measure cell subsets, serum Ig, chemokines, cytokines, and gene expression.
Kidneys were immersed in 10% neutral buffered formalin at ambient temperature for 24 h, then paraffin-embedded using routine methods. Four micron histologic sections were stained with Periodic acid–Schiff (PAS) for evaluation of glomerulonephritis and hematoxylin and eosin (H&E) for visual evaluation of interstitial inflammation by light microscopy. Scoring by the pathologist was performed in a blinded fashion. Glomerulonephritis severity scoring was on a 4-point semi-quantitative scale: “0” – normal or mild global lesions in <50% of glomeruli, “1”—global lesions in > 50% of glomeruli, <20% of which are severe (defined as >1 segment with <3 patent capillaries), “2”—global lesions in >50% of glomeruli, 20–80% of which are severe, and “3”— >80% of glomeruli with severe global lesions. Chronic pyelitis, cortical periarteritis, and tubulointerstitial nephritis severity was determined by blinded disease scoring. Severity scores for tubulointerstitial nephritis, periarteritis, and pyelitis were all on 4-point semiquantitative scales: “0”—no significant inflammation, “1”—sparse or focal inflammatory infiltrates, “2”—occasional moderately sized inflammatory infiltrates, and “3”—frequent large inflammatory infiltrates. Proteinuria measurements were done by dipstick (Multistix, Bayer Diagnostics). Protein concentration was assigned a proteinuria score with trace = […] = 1, 100 mg/dl = 2, >300 mg/dl = 4, and dead mice = 5.

[3] = tested on: TWEAK inducible genes in murine RPTEC; experiment: TWEAK-induced NIK-dependent gene expression in RPTECs (RNASeq); type: cell-based, mouse; conditions: 3 μM
Procedure: Total RNA was extracted using Qiagen RNeasy kit as per manufacturer’s protocol including the on-column DNase digestion. Quality control of samples was done to determine RNA quantity and quality prior to their processing by RNA-seq. The concentration of RNA samples was determined using NanoDrop 8000 (Thermo Scientific) and the integrity of RNA was determined by Fragment Analyzer (Advanced Analytical). 0.5 ug of total RNA was used as an input material for library preparation using TruSeq RNA Sample Preparation Kit v2 (Illumina). Size of the libraries was confirmed using 2200 TapeStation and High Sensitivity D1K screen tape (Agilent Technologies) and their concentration was determined by qPCR based method using Library quantification kit (KAPA). The libraries were multiplexed and then sequenced on Illumina HiSeq2500 (Illumina) to generate 30 M of single end 50 base pair reads. […] Raw RNA sequencing reads were processed using the HTSeqGenie Bioconductor package. Reads were aligned to the reference mouse genome sequence (National Center for Biotechnology Information build 37) using the Genomic Short-Read Nucleotide Alignment Program algorithm. Uniquely aligned read pairs that fell within exons were counted to estimate individual gene expression levels. For inclusion, genes were required to have >10 reads in at least four samples. […] Data were analyzed and plotted using Expression Plot[72].

[4] = tested on: nuclear p52 (non-canonical NF-κB signaling); experiment: High content nuclear p52 imaging, anti-LTβR-stimulated HeLa cells; type: cell-based, human; conditions: Homo sapiens, anti-LTβR induced, mean ± SD
Procedure: The HeLa cell line was used to define the cellular selectivity of NIK inhibitors toward inhibition of classical vs. non-classical NF-κB signaling using high content cellular imaging assays. For the nuclear translocation assay p52 (non-canonical NF-κB signaling), HeLa cells were treated with different concentrations of compounds previously diluted in DMSO (final [DMSO] = 0.2% in all wells) in DMEM medium (10% FBS, 2 mM Glutamine) and then stimulated with 300 ng/mL of an anti-lymphotoxin beta receptor antibody for 4.5 h. In the REL-A nuclear translocation assay, HeLa cells were incubated with compounds for 4 h 50 min before stimulating them with 2 ng/mL TNF (R&D Systems) for 10 min. Cells were fixed with 4% paraformaldehyde, permeabilized by adding 0.1% Triton X-100 in phosphate buffered saline, and then are incubated with either 2 μg/mL anti-p52 antibody or 400 ng/mL anti-REL-A (p65) antibody. Finally, the cells are incubated with an Alexa488-labeled secondary antibody (Invitrogen) and DRAQ5 DNA stain (Biostatus). Imaging was carried out using an Opera reader (Perkin Elmer) and data were analyzed with Acapella software (Perkin Elmer). The p52 or REL-A translocation into the nucleus is quantified by the ratio of the nuclear to cytoplasmic signal intensity.

With `COc1cc(C(N)=O)nc(-c2cccc(C#C[C@]3(O)CCN(C)C3=O)c2)c1` [NIK SMI1] the IC50 (human B cells) was greater than 10000 nM, the “anti-CD40-induced IL-12p40 production” value [1] was “reduced” and the “BAFF-induced and CD40-induced p52 processing” value [2] was “significantly inhibited”. For the same compound, the reduction of mortality (NZB/W F1 mice; 180 mg/kg BID P.O., 9 weeks) was “about 50%”, the “inhibition of NIK at the time point of lowest exposure” value (NZB/W F1 mice; 180 mg/kg, 12 h after the prior dose, based on PK sampling) was “about 70%” and the proteinuria score (NZB/W F1 mice; 9 weeks of treatment, AUC day 19-84) was “statistically significant reduction”. For the same compound, the survival (NZB/W F1 mice; IFNα-accelerated NZB/W F1 mice) was “improved survival”, the “TWEAK inducible gene expression” value ([3]; 6 and 24 h, RNASeq) was “majority of TWEAK inducible genes were inhibited” and the “genes induced by TWEAK and repressed by NIK SMI1” value ([3]; RPTEC in vitro) was 179 genes. For the same compound, the IC50 [4] was 70 nM.

Source: PMC5766581, “NF-κB inducing kinase is a therapeutic target for systemic lupus erythematosus” (Nature Communications, 2018)
